Values of other authors as cited in patent publication US8198478B2 (Ajinomoto Co., Inc., priority 2007, dated 2012).

Settings: literature value (Kagaku Binran, 1993)

hydrogen ion dissociation constant pk1: 2.19
hydrogen ion dissociation constant pk2: 4.25
hydrogen ion dissociation constant pk3: 9.67
SMILES: N[C@@H](CCC(=O)O)C(=O)O [glutamic acid]
